Source: patent publication US11225469B2, “Inhibitors of phosphoglycerate dehydrogenase (PHGDH) and uses thereof” (Whitehead Institute for Biomedical Research, priority 2015, dated 2022)

target: PHGDH (Homo sapiens (Human), UniProt O43175); test: PHGDH inhibition, coupled assay with PSAT1/PSPH and diaphorase/resazurin readout; format: biochemical; details: Table E9; mixture with PSAT1, PSPH; diaphorase/resazurin reporter
Sequence (O43175 whole entry): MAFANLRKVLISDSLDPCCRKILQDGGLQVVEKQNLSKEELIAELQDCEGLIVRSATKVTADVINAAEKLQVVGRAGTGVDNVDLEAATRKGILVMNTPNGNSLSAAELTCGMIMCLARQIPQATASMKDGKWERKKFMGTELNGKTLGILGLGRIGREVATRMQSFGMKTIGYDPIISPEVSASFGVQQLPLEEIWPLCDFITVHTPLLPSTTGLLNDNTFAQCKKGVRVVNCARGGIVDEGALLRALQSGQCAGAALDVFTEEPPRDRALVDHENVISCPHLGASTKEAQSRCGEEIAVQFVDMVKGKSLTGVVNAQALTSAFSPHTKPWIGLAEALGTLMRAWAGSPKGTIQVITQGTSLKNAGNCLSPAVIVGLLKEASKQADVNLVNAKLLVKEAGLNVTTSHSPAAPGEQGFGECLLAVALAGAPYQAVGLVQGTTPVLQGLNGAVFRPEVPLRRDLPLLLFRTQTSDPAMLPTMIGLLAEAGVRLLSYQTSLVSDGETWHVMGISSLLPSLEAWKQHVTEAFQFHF
Experimental: Compounds of the invention were assayed for inhibition of the activity phosphoglycerate dehydrogenase (PHGDH). The compounds were assayed in a mixture comprising PHGDH, PSAT1, PSPH, NADH, and glutamate. Diaphorase and resazurin were used as a fluorescent reporter system.
In this endogenous pathway coupled assay, the production of NADH by PHGDH was measured through the diaphorasemediated reduction of resazurin (See, e.g., Chakraborty, S., Sakka, M., Kimura, T. & Sakka, K. “Characterization of a dihydrolipoyl dehydrogenase having diaphorase activity of Clostridium kluyveri.” BioscL Biotechnol. Biochem. 72, 982-988 (2008)).
PHGDH assay buffer contained 50 mM TEA pH 8.0, 10 mM MgCl2, 0.05% BSA, and 0.01% Tween-20. PHGDH enzyme buffer consisted of assay buffer with 20 nM PHGDH and 0.2 mg/mL diaphorase. PHGDH substrate buffer contained 0.3 mM NAD 1.25 mM glutamate, 0.1 mM 3-phosphoglycerate, 0.2 mM resazurin, 1 μM PSAT1, and 1 μM PSPH. qHTS was performed in 1536-well plates dispensed with a BioRAPTR FRD. Each well contained equal volumes of substrate buffer and assay buffer. Plates were read at 0 minutes and 20 minutes at room temperature with a ViewLux uHTS Microplate Imager (PerkinElmer). Follow-up assays were performed in black 384-well plates (Greiner) in 20 μL of enzyme buffer to which compounds were added in dose-response with an HP D300 digital dispenser (Hewlett-Packard), followed by addition of 20 μL of substrate buffer. Plates were incubated at room temperature (25° C.) and read at 0 and 20 minutes with a Spectramax M5 plate reader (Molecular Devices) in fluorescence intensity mode with a λex=550 nm and λem=600 nm (emission cutoff=590 nm).

Row | IC50 [µM] | Structure (SMILES)
1 | 10 to 20 | Cc1cc(C)nc(NC(=S)N2CCN(c3ncccc3C(F)(F)F)CC2)c1 [Compound 113]
2 | 10 to 20 | Cc1cc(C)nc(NC(=S)N2CCN(c3ccc(Cl)cc3[S+](C)(=O)[O-])CC2)c1 [Compound 115]
3 | 5 to 10 | Cc1cc(C)nc(NC(=S)N2CCN(c3cccc(C(F)(F)F)n3)CC2)c1 [Compound 116]
4 | < 5 | Cc1cc(C)nc(NC(=S)N2CCN(c3nccc(C(F)(F)F)n3)CC2)c1 [Compound 117]
5 | ≥ 20 | Cc1cc(C)nc(NC(=S)N2CCN(c3cnccn3)CC2)c1 [Compound 118]
6 | ≥ 20 | Cc1cc(C)nc(NC(=S)N2CCN(c3ncnc4sccc34)CC2)c1 [Compound 120]
7 | ≥ 20 | Cc1cc(C)nc(NC(=S)N2CCN(c3ncccc3C#N)CC2)c1 [Compound 121]
8 | < 5 | Cc1cc(C)nc(NC(=S)N2CCN(c3cc(C(F)(F)F)nc4ccccc34)CC2)c1 [Compound 122]
9 | ≥ 20 | Cc1cc(C)nc(NC(=S)N2CCN(c3ccc([N+](=O)[O-])c4cccnc34)CC2)c1 [Compound 123]
10 | 10 to 20 | Cc1cc(C)nc(NC(=S)N2CCN(c3ccc4ncccc4c3[N+](=O)[O-])CC2)c1 [Compound 124]
11 | ≥ 20 | Cc1cc(NC(=S)N2CCN(c3cccc(C(F)(F)F)c3)CC2)nc2ccccc12 [Compound 127]
12 | ≥ 20 | Cc1cc(C)nc(NC(=S)N2CCN(c3ccc4cn(C)nc4c3)CC2)c1 [Compound 129]
13 | 10 to 20 | COc1cc(NC(=S)N2CCN(c3cccc(C(F)(F)F)c3)CC2)nc2ccccc12 [Compound 130]
14 | ≥ 20 | Cc1cc(C)nc(NC(=S)N2CCN(c3nncs3)CC2)c1 [Compound 131]
15 | 10 to 20 | Cc1cc(C)nc(NC(=S)N2CCN(c3nccc4ccccc34)CC2)c1 [Compound 132]
16 | ≥ 20 | Cc1cc(C)nc(NC(=S)N2CCN(c3ccc(-c4ccccc4)cc3)CC2)c1 [Compound 133]
17 | 5 to 10 | Cc1cc(C)nc(NC(=S)N2CCN(c3cccc(OC(F)(F)F)c3)CC2)c1 [Compound 134]
18 | < 5 | Cc1cc(C)nc(NC(=S)N2CCN(c3cccc(OC(F)F)c3)CC2)c1 [Compound 135]
19 | 10 to 20 | COc1cc(N2CCN(C(=S)Nc3cc(C)cc(C)n3)CC2)cc(C(F)(F)F)c1 [Compound 136]
20 | 10 to 20 | Cc1cc(C)nc(NC(=S)N2CCN(c3cc(Cl)cc(C(F)(F)F)c3)CC2)c1 [Compound 137]
21 | ≥ 20 | Cc1cc(C)nc(NC(=S)N2CCN(c3cccc([S+](C)[O-])c3)CC2)c1 (stereo not drawn) [Compound 139]
22 | ≥ 20 | Cc1cc(C)nc(NC(=S)N2CCN(c3cccc([S+](C)(=O)[O-])c3)CC2)c1 [Compound 140]
23 | 5 to 10 | Cc1cc(C)nc(NC(=S)N2CCN(c3cc(Br)cc(C(F)(F)F)c3)CC2)c1 [Compound 142]
24 | ≥ 20 | Cc1cc(C)nc(NC(=S)N2CCN(c3cc4ccccc4cn3)CC2)c1 [Compound 145]

Row | IC50 [µM] | Structure (SMILES)
25 | 10 to 20 | Cc1cc(C)nc(NC(=S)N2CCN(c3cncc4ccccc34)CC2)c1 [Compound 146]
26 | 10 to 20 | Cc1cc(C)nc(NC(=S)N2CCN(c3cccc4cnccc34)CC2)c1 [Compound 147]
27 | 10 to 20 | Cc1cc(C)nc(NC(=S)N2CCN(c3ccc4cnccc4c3)CC2)c1 [Compound 148]
28 | 10 to 20 | Cc1cc(C)nc(NC(=S)N2CCN(c3cccc4ccncc34)CC2)c1 [Compound 149]
29 | ≥ 20 | Cc1cc(C)nc(NC(=S)N2CCN(c3cccc4nccn34)CC2)c1 [Compound 150]
30 | ≥ 20 | Cc1cc(C)nc(NC(=S)N2CCN(C3=Nc4ccccc4Oc4ccccc43)CC2)c1 [Compound 154]
31 | 10 to 20 | Cc1cc(C)nc(NC(=S)N2CCN(c3cccc4[nH]ccc34)CC2)c1 [Compound 155]
32 | ≥ 20 | Cc1cc(C)nc(NC(=S)N2CCN(c3nccc4ccsc34)CC2)c1 [Compound 156]
33 | ≥ 20 | Cc1cc(C)nc(NC(=S)N2CCN(c3cncs3)CC2)c1 [Compound 157]
34 | 5 to 10 | Cc1cc(C)nc(NC(=S)N2CCN(c3cc(C(F)(F)F)nc4ccc(C(F)(F)F)cc34)CC2)c1 [Compound 158]
35 | ≥ 20 | Cc1cc(C)nc(NC(=S)N2CCN(c3ccc4nonc4c3)CC2)c1 [Compound 159]
36 | ≥ 20 | Cc1cc(C)nc(NC(=S)N2CCN(c3cnc4nccn4c3)CC2)c1 [Compound 160]
37 | ≥ 20 | Cc1cc(C)nc(NC(=S)N2CCN(c3ccc4nncn4c3)CC2)c1 [Compound 161]
38 | ≥ 20 | Cc1cc(C)nc(NC(=S)N2CCN(c3ccc4nccn4c3)CC2)c1 [Compound 162]
39 | 10 to 20 | Cc1cc(C)nc(NC(=S)N2CCN(c3ccc4nsnc4c3)CC2)c1 [Compound 163]
40 | 10 to 20 | Cc1cc(C)nc(NC(=S)N2CCN(c3ccc4occc4c3)CC2)c1 [Compound 164]
41 | ≥ 20 | Cc1cc(C)nc(NC(=S)N2CCN(c3ccc(Cl)nn3)CC2)c1 [Compound 165]
42 | ≥ 20 | Cc1cc(C)nc(NC(=S)N2CCN(c3ccsc3)CC2)c1 [Compound 166]
43 | ≥ 20 | Cc1cc(C)nc(NC(=S)N2CCN(c3ccc4c(c3)OCO4)CC2)c1 [Compound 167]
44 | ≥ 20 | Cc1cc(C)nc(NC(=S)N2CCN(Cc3cccc4ccccc34)CC2)c1 [Compound 168]
45 | 10 to 20 | Cc1ccnc(NC(=S)N2CCN(c3ccc4ccccc4n3)CC2)c1 [Compound 177]
46 | 10 to 20 | COc1ccnc(NC(=S)N2CCN(c3ccc4ccccc4n3)CC2)c1 [Compound 186]
47 | ≥ 20 | COc1cccc(NC(=S)N2CCN(c3ccc4ccccc4n3)CC2)n1 [Compound 196]
48 | ≥ 20 | S=C(Nc1cc(Cl)ccn1)N1CCN(c2ccc3ccccc3n2)CC1 [Compound 203]

Further lines, the molecule ahead of its results:

Row | Structure (SMILES) | IC50 [µM]
49 | Cc1cc(C)nc(Nc2nnc(N3CCN(c4cccc(C(F)(F)F)c4)CC3)s2)c1 [Compound 125] | ≥ 20
50 | Cc1ccnc(NC(=S)N2CCN(c3cccc(C(F)(F)F)c3)CC2)n1 [Compound 126] | 10 to 20
51 | FC(F)(F)c1cccc(N2CCN(C(=S)Nc3cnccn3)CC2)c1 [Compound 128] | ≥ 20
52 | Cc1ccnc(NC(=S)N2CCN(c3cc(F)cc(Cl)c3)CC2)c1 [Compound 141] | < 5
53 | FC(F)(F)c1cccc(N2CCN(C(=S)Nc3ncnc4ccccc34)CC2)c1 [Compound 143] | 5 to 10
54 | CN(C)c1ccc2nc(NC(=S)N3CCN(c4cccc(C(F)(F)F)c4)CC3)sc2c1 [Compound 144] | ≥ 20
55 | O=C(Nc1cc2ccccc2cn1)N1CCN(c2cccc(C(F)(F)F)c2)CC1 [Compound 152] | ≥ 20
56 | Cc1cc(C)nc(NC(=S)N2CCN(c3cc(C(F)(F)F)nc(C)n3)CC2)c1 [Compound 153] | 10 to 20
57 | Cc1ccnc(NC(=S)N2CCN(c3cc(Cl)cc(Cl)c3)CC2)c1 [Compound 169] | 5 to 10
58 | Cc1ccnc(NC(=S)N2CCN(c3cc(C(F)(F)F)cc(C(F)(F)F)c3)CC2)c1 [Compound 170] | 5 to 10
59 | Cc1ccnc(NC(=S)N2CCN(c3cccc(Cl)c3Cl)CC2)c1 [Compound 171] | 5 to 10
60 | Cc1ccnc(NC(=S)N2CCN(c3ccc(Cl)cc3Cl)CC2)c1 [Compound 172] | 5 to 10
61 | Cc1ccnc(NC(=S)N2CCN(c3ccc(Cl)c(Cl)c3)CC2)c1 [Compound 173] | 5 to 10
62 | Cc1ccnc(NC(=S)N2CCN(c3ccc(C(F)(F)F)cc3[N+](=O)[O-])CC2)c1 [Compound 174] | 5 to 10
63 | Cc1ccnc(NC(=S)N2CCN(c3cccc(C(F)(F)F)n3)CC2)c1 [Compound 175] | < 5
64 | Cc1ccnc(NC(=S)N2CCN(c3ncc(C(F)(F)F)cc3Cl)CC2)c1 [Compound 176] | 5 to 10
65 | COc1ccnc(NC(=S)N2CCN(c3cc(Cl)cc(Cl)c3)CC2)c1 [Compound 178] | 5 to 10
66 | COc1ccnc(NC(=S)N2CCN(c3cc(C(F)(F)F)cc(C(F)(F)F)c3)CC2)c1 [Compound 179] | < 5
67 | COc1ccnc(NC(=S)N2CCN(c3cccc(Cl)c3Cl)CC2)c1 [Compound 180] | 5 to 10
68 | COc1ccnc(NC(=S)N2CCN(c3ccc(Cl)cc3Cl)CC2)c1 [Compound 181] | 10 to 20

Row | Structure (SMILES) | IC50 [µM]
69 | COc1ccnc(NC(=S)N2CCN(c3ccc(Cl)c(Cl)c3)CC2)c1 [Compound 182] | 5 to 10
70 | COc1ccnc(NC(=S)N2CCN(c3ccccc3C(F)(F)F)CC2)c1 [Compound 183] | 5 to 10
71 | COc1ccnc(NC(=S)N2CCN(c3cccc(C(F)(F)F)n3)CC2)c1 [Compound 184] | 5 to 10
72 | COc1ccnc(NC(=S)N2CCN(c3ncc(C(F)(F)F)cc3Cl)CC2)c1 [Compound 185] | 5 to 10
73 | COc1cccc(NC(=S)N2CCN(c3cc(Cl)cc(Cl)c3)CC2)n1 [Compound 187] | ≥ 20
74 | COc1cccc(NC(=S)N2CCN(c3cc(C(F)(F)F)cc(C(F)(F)F)c3)CC2)n1 [Compound 188] | < 5
75 | COc1cccc(NC(=S)N2CCN(c3cccc(Cl)c3Cl)CC2)n1 [Compound 189] | 10 to 20
76 | COc1cccc(NC(=S)N2CCN(c3ccc(Cl)cc3Cl)CC2)n1 [Compound 190] | < 5
77 | COc1cccc(NC(=S)N2CCN(c3ccc(Cl)c(Cl)c3)CC2)n1 [Compound 191] | ≥ 20
78 | COc1cccc(NC(=S)N2CCN(c3ccc(C(F)(F)F)cc3[N+](=O)[O-])CC2)n1 [Compound 192] | 10 to 20
79 | COc1cccc(NC(=S)N2CCN(c3ccccc3C(F)(F)F)CC2)n1 [Compound 193] | < 5
80 | COc1cccc(NC(=S)N2CCN(c3cccc(C(F)(F)F)n3)CC2)n1 [Compound 194] | 5 to 10
81 | COc1cccc(NC(=S)N2CCN(c3ncc(C(F)(F)F)cc3Cl)CC2)n1 [Compound 195] | < 5
82 | S=C(Nc1cc(Cl)ccn1)N1CCN(c2cc(Cl)cc(Cl)c2)CC1 [Compound 197] | ≥ 20
83 | FC(F)(F)c1cc(N2CCN(C(=S)Nc3cc(Cl)ccn3)CC2)cc(C(F)(F)F)c1 [Compound 198] | ≥ 20
84 | S=C(Nc1cc(Cl)ccn1)N1CCN(c2ccc(Cl)cc2Cl)CC1 [Compound 199] | ≥ 20
85 | S=C(Nc1cc(Cl)ccn1)N1CCN(c2ccc(Cl)c(Cl)c2)CC1 [Compound 200] | 10 to 20
86 | O=[N+]([O-])c1cc(C(F)(F)F)ccc1N1CCN(C(=S)Nc2cc(Cl)ccn2)CC1 [Compound 201] | 10 to 20
87 | FC(F)(F)c1cnc(N2CCN(C(=S)Nc3cc(Cl)ccn3)CC2)c(Cl)c1 [Compound 202] | 10 to 20
